Results from paper PMC5845537 (Frontiers in Pharmacology, 2018).

Tests used:
GABAB receptor = target: T1, GABAB receptor (Rattus norvegicus, UniProt Q9Z0U4); test: Ex vivo autoradiography, GABAB receptor saturation binding ([3H]CGP54626), medial prefrontal cortex
T1 construct: 12 μm coronal sections were collected from an area ranging from approximately +4.2 mm to +2.3 mm anterior to Bregma; from tissue; host or cells: rat brain cryosections, medial prefrontal cortex (prelimbic and infralimbic)
Excerpt: Rats used in ex vivo autoradiography (EVA) experiments were randomly assigned to one of four experimental groups characterized by either subchronic saline or PCP (as described above) along with either vehicle or vortioxetine-infused food (1.8 g vortioxetine/kg food weight, as described in the attentional set shifting task). On day 8 of PCP withdrawal, rats were anesthetized using CO2 and killed by decapitation. Brains were quickly and gently removed from the skull, flash frozen on powdered dry ice, and stored at -20°C until sectioning. Later, 12 μm coronal sections were collected from an area ranging from approximately +4.2 mm to +2.3 mm anterior to Bregma ([Paxinos and Watson, 1998]) using a cryostat (MicroM, Germany) and were thaw-mounted on glass microscope slides. This range of coronal slices was chosen in order to study the prelimbic and infralimbic subregions of the medial prefrontal cortex, given the importance of these regions in tests of executive function such as the attentional set shifting task ([Ng et al., 2007]). After the tissue mounted on the microscope slides had dried thoroughly (in order to reduce damage from freezing), slides were packed into slide boxes with desiccator pellets, and stored at -20°C for use in EVA saturation binding and competition experiments.
Each of the EVA procedures used in this study are variations on a similar theme. On the day of an experiment, slide-boxes were defrosted under a constant stream of air at room temperature until the boxes were dry and equilibrated with the environment in terms of temperature. This step was undertaken in order to ensure brain tissue was not damaged by frosting due to a sudden change in humidity. Prior to any binding experiments, slides were preincubated in the appropriate preincubation buffer and dried at room temperature. Subsequently, tissue was incubated in an assay buffer containing a radioligand appropriate for the receptor of interest, then rinsed in assay buffer, and dried overnight in a vacuum desiccator. Specific information on the contents of the preincubation buffers, assay buffers and other assay conditions are listed in Table 2. Finally, slides were opposed to a tritium-sensitive phosphor screen (Fuji imaging plate, GE Healthcare, Pittsburgh, PA, United States) for 5 days before being read in a phosphorimager (Typhoon FLA7000, GE Healthcare). Analysis methods are listed below under statistical analyses.
In saturation binding experiments, the concentration of the relevant radioligand in the assay buffer was systematically varied in order to determine the KD and Bmax of the receptor in question. At each radioligand concentration, the non-specific binding was determined on a separate slide by including a high concentration of a non-radioactive competitor ligand in the assay buffer along with the radioligand. For GABAA receptor saturation binding experiments, [^3H]muscimol was examined in quarter log steps ranging from 0.56 to 300 nM. For GABAB receptor saturation binding experiments, [^3H]CGP54626 was examined in quarter log steps ranging from 0.17 to 100 nM.
For saturation binding studies, the primary dependent measures were pKD and Bmax. First, a standard curve was generated by measuring optical intensity from a slide of tritium standards (American Radiolabeled Chemicals, St. Louis, MO, United States) included in the slide cassette during exposure. A linear regression was performed to determine the relationship between intensity and bound radioactivity (measured on the standards in units of μCi/g). Next, average intensity values from the non-specific bound condition for each concentration of radioligand was subtracted from intensity values from the total bound condition to produce a measure of specific binding for each radioligand concentration. These optical intensity values were transformed into bound radioactivity (expressed as nCi/mg) measurements by interpolation from the standard curve noted above. […]

GABAA receptor = test: Ex vivo autoradiography, GABAA receptor competition binding ([3H]muscimol vs GABA), medial prefrontal cortex; parameters: species or system rat
Excerpt: Rats used in ex vivo autoradiography (EVA) experiments were randomly assigned to one of four experimental groups characterized by either subchronic saline or PCP (as described above) along with either vehicle or vortioxetine-infused food (1.8 g vortioxetine/kg food weight, as described in the attentional set shifting task). On day 8 of PCP withdrawal, rats were anesthetized using CO2 and killed by decapitation. Brains were quickly and gently removed from the skull, flash frozen on powdered dry ice, and stored at -20°C until sectioning. […] After the tissue mounted on the microscope slides had dried thoroughly (in order to reduce damage from freezing), slides were packed into slide boxes with desiccator pellets, and stored at -20°C for use in EVA saturation binding and competition experiments.
Each of the EVA procedures used in this study are variations on a similar theme. On the day of an experiment, slide-boxes were defrosted under a constant stream of air at room temperature until the boxes were dry and equilibrated with the environment in terms of temperature. […] Prior to any binding experiments, slides were preincubated in the appropriate preincubation buffer and dried at room temperature. Subsequently, tissue was incubated in an assay buffer containing a radioligand appropriate for the receptor of interest, then rinsed in assay buffer, and dried overnight in a vacuum desiccator. […] Finally, slides were opposed to a tritium-sensitive phosphor screen (Fuji imaging plate, GE Healthcare, Pittsburgh, PA, United States) for 5 days before being read in a phosphorimager (Typhoon FLA7000, GE Healthcare).
Ki values for competition experiments were calculated separately for each animal, then aggregated to estimate sample averages and error. Ki values were calculated via non-linear regression, assuming a one-site competition binding, using GraphPad Prism version 6 for Windows (GraphPad software, La Jolla, CA, United States). pKi values were then calculated via the following formula: pKi = -Log10(Ki).

C57BL/6NCrlBr mice = test: Mouse object recognition (OR) task after subchronic PCP; format: in vivo
Experimental: Subchronic PCP treatment: The subPCP administration regimen used in rats was conducted as described in ([Goetghebeur and Dias, 2009]), which is a reliable method for inducing deficits in our hands. Rats in the subPCP experiments received injections of 5 mg/mL PCP or vehicle (saline) s.c. at a 1 mL/kg injection volume twice per day for 7 days. […] The mouse subPCP regimen was conducted as described in [Pedersen et al. (2014)]. Briefly, mice received vehicle or PCP (1.3 mg/mL concentration, 10 mL/kg injection volume) s.c once per day for 14 days followed by a 7-day washout prior to experimentation.
Object placement and OR tasks in mice were executed in Perspex boxes measuring 40 × 40 cm with dark gray walls and a white floor. The tests were conducted during the light phase, yet in a subdued light (≈20 lux) and with the radio turned on in the background. Each trial was recorder by a camera mounted above the test arenas and later scored manually.
Objects in the mouse OP task consisted of small stork sculptures made of plaster, which were 11.5 cm in height, with a roughly rectangle-shaped base 7.5 cm in length and 4.8 cm in width. For the mouse OR task, objects consisted of (1) small cylindrical pepper mills (purchased empty, having never contained spice) made of clear plastic (10.5 cm in height, 4.5 cm diameter), and (2) small salt shakers made of light blue glass (again, purchased empty; 11.5 cm in height, 4.5 cm diameter). […]
The primary dependent measure for the OR and object placement tasks was a novel object or novel placement preference score, which were calculated from raw object investigation times using the following equation: Preference Score = ITN/(ITN + ITF)^∗100, where ITN represents the investigation time for the novel object or placement, and ITF represents the investigation for the familiar object or placement. Total exploration times from the information and test trials were analyzed for OP and OR experiments. Preference score and total exploration time data was analyzed for treatment group differences using a one-way between-subjects ANOVA. […]

T1 sequence (Q9Z0U4 17-960 limits assumed): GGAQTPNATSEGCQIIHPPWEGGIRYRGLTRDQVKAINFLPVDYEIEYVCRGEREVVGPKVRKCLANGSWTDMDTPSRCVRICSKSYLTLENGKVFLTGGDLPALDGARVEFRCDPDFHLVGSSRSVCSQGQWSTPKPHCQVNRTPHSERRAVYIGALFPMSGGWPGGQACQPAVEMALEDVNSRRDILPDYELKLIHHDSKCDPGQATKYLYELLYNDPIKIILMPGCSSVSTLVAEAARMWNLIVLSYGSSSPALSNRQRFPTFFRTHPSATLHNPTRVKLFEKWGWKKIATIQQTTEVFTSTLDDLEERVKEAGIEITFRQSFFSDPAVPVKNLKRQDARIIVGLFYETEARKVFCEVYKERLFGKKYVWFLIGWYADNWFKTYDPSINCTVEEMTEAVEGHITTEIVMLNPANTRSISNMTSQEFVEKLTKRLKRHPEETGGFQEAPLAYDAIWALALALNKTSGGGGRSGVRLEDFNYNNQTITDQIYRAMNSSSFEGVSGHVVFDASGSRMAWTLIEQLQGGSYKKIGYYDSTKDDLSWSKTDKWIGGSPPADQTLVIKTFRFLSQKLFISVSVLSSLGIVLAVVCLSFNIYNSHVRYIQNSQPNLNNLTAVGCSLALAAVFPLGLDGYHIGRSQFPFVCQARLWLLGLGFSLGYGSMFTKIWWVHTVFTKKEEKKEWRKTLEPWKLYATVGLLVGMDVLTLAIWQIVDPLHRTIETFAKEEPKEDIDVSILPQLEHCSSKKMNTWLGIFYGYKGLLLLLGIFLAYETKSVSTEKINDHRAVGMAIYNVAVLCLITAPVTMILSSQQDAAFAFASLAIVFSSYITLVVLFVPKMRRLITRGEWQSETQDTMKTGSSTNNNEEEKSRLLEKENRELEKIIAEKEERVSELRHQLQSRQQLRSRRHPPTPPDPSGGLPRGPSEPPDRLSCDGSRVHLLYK
T1 sequence (O88871 41-940 partner): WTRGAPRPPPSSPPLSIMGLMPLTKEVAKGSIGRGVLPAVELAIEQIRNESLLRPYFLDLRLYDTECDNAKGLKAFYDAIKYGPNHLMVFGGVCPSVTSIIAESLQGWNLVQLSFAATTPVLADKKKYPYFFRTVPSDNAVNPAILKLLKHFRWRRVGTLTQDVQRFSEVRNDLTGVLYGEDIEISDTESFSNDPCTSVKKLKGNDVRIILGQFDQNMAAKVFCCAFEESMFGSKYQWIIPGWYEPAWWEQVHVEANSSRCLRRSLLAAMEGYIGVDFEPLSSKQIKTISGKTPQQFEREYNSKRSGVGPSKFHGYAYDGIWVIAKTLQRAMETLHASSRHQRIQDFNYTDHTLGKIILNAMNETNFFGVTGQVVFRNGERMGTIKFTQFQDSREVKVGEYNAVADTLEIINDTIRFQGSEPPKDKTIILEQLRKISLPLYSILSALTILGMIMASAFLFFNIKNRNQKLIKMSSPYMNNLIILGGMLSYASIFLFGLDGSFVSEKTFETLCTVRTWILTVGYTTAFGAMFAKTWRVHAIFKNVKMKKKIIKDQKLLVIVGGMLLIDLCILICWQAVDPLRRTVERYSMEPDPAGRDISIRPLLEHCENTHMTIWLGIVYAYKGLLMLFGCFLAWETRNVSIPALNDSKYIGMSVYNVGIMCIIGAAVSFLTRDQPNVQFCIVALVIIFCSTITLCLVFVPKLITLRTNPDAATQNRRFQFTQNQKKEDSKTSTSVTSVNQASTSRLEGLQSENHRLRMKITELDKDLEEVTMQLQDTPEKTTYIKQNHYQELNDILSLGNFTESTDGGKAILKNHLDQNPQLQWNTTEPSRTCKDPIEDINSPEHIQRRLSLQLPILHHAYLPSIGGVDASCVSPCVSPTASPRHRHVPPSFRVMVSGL

Row | Compound | effect of treatment on [3H]CGP54626 Bmax (GABAB receptor) (GABAB receptor; subPCP vs saline/vehicle group, p < 0.05) | effect of treatment on GABA pKi at the GABAA receptor (GABAA receptor; subPCP treatment on its own) | novel object preference score (C57BL/6NCrlBr mice; subPCP/veh vs control mice, PCP 13 mg/kg s.c. once per day 14 days, 7-day washout, p < 0.001) | [3H]CGP54626 Bmax (GABAB receptor), PCP/vortioxetine vs PCP/vehicle (GABAB receptor; subchronic vortioxetine combined with subPCP) | GABA pKi at the GABAA receptor, PCP/vortioxetine vs vehicle/vortioxetine group (GABAA receptor; subchronic vortioxetine combined with subPCP, p < 0.01) | increase in the affinity of GABA for the GABAA receptor (GABAA receptor; vehicle/vortioxetine vs saline/vehicle group, subchronic 1.8 g vortioxetine/kg food, p < 0.01) | novel object preference score, vehicle/vortioxetine vs vehicle/vehicle (C57BL/6NCrlBr mice; mice without PCP, 10 mg/kg s.c. bolus then 0.6 g/kg chow) | novel object preference score vs subPCP/vehicle (C57BL/6NCrlBr mice; subPCP/vortioxetine mice, 10 mg/kg s.c. bolus then 0.6 g/kg chow, p < 0.01)
1 | Cl.c1ccc(C2(N3CCCCC3)CCCCC2)cc1 [PCP, 1-(1-phenylcyclohexyl)-piperidine hydrochloride] | significant reductions | did not significantly alter | significantly lower novel object preference scores |  |  |  |  | 
2 | Cc1ccc(Sc2ccccc2N2CCNCC2)c(C)c1 [vortioxetine] |  |  |  | no significant differences | significantly lower | approximately 2.5 fold | no statistically significant difference | significantly higher novel object preference scores
